The source of these data is article PMC6419424, “Rational protein design of Bacillus sp. MN chitosanase for altered substrate binding and production of specific chitosan oligomers” (Journal of Biological Engineering, 2019).

Each structure is given as a SMILES string.

This experiment has as its target T1, CSN (BspCsnMN) (Bacillus sp. MN, UniProt H9CXV8).
T1 construct: GH8 chitosanase (EC 3.2.1.132), Strep-tag II fusion (pET-22b(+)::StrepII-csn), expressed in E. coli Rosetta 2 (DE3), Strep-Tactin purified
The experiment in a line: UHPLC-ELSD-ESI-MS product quantification, Hill fit. The class given is biochemical. The following applies: 40 mM sodium acetate pH 6, 30 °C, 10 min.

T1 sequence (H9CXV8 entry or part of it): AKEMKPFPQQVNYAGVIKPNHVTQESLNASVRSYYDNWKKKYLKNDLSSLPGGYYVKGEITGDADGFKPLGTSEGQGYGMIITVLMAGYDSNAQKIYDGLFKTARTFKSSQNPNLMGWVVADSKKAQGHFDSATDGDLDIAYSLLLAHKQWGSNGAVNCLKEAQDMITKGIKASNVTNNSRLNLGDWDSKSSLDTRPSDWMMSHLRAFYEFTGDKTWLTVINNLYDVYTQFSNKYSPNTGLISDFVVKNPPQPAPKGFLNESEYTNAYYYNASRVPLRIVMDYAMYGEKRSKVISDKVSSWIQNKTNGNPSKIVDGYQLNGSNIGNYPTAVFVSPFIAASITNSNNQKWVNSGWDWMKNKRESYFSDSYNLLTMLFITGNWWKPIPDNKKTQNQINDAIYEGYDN

For the compound `N[C@H]1[C@H](O[C@H]2[C@H](O)[C@@H](N)[C@H](O[C@H]3[C@H](O)[C@@H](N)[C@H](O[C@H]4[C@H](O)[C@@H](N)[C@H](O[C@H]5[C@H](O)[C@@H](N)C(O)O[C@@H]5CO)O[C@@H]4CO)O[C@@H]3CO)O[C@@H]2CO)O[C@H](CO)[C@@H](O)[C@@H]1O` (stereo partly shown) [D5], the “UHPLC-ELSD-ESI-MS product quantification, Hill fit” value is “CSN showed high activity on the polymer, and it was even slightly more active on D5”.
